Test results from the supplement of paper PMC13380429.

How the values were obtained:
A549-ACE2 [1] = test: drug-induced phospholipidosis relative to tamoxifen; higher = more phospholipidosis
A549-ACE2 [2] = test: phospholipidosis EC50; higher = less potent phospholipidosis inducer
U2OS [3] = test: cell viability relative to DMSO; higher = less toxic; settings: 72 h
HepG2 [4] = test: as above; settings: 72 h
Calu-3 [5] = test: as above; settings: 72 h
Caco-2 [6] = test: as above; settings: 72 h
Vero E6 [7] = test: as above; settings: 72 h
U2OS [8] = test: drug sensitivity score (DSS) for viability; higher = more toxic; extreme values may be limits of the assay; settings: 72 h
HepG2 [9] = test: as above; settings: 72 h
Calu-3 [10] = test: as above; settings: 72 h
Caco-2 [11] = test: as above; settings: 72 h
Vero E6 [12] = test: as above; settings: 72 h
[13] = tested on: A549-ACE2 infected with SARS-CoV-2; test: SARS-CoV-2 infection rate relative to DMSO; higher = more infection; settings: 24 h
U2OS [14] = test: relative viability EC50 (midpoint between 100% and the lowest measured viability); higher = less toxic; settings: 72 h
Caco-2 [15] = test: as above; settings: 72 h
[16] = tested on: A549-ACE2 infected with SARS-CoV-2; test: cell count relative to DMSO; higher = less toxic; settings: 24 h
[17] = tested on: A549-ACE2 infected with SARS-CoV-2; test: morphology score (similarity to uninfected cells); higher = more like uninfected cells; settings: 24 h
Calu-3 [18] = test: relative viability EC50 (midpoint between 100% and the lowest measured viability); higher = less toxic; settings: 72 h
Vero E6 [19] = test: as above; settings: 72 h

CSc1ccc2c(c1)[C@H](N1CCN(C)CC1)Cc1ccccc1S2 (racemic) [metitepine]
drug-induced phospholipidosis [%], A549-ACE2 [1]
Settings	0.3 µM	0.833333 µM	3.33333 µM	6.66667 µM	10 µM	30 µM
24 h	7.38	6.64	62.5	91.7	105	86.3
48 h	6.3	11.3	47.9	92.1	115	–
72 h	8.87	6.23	37.4	86.6	125	–

Settings	SARS-CoV-2 infection rate [%]	cell count [%]	cell viability [%]	morphology score	phospholipidosis EC50 [µM]
A549-ACE2 [2], 24 h	–	–	–	–	3.04
A549-ACE2 [2], 48 h	–	–	–	–	5.86
A549-ACE2 [2], 72 h	–	–	–	–	9.23
Caco-2 [6], 1 nM	–	–	108	–	–
Caco-2 [6], 10 nM	–	–	92.9	–	–
Caco-2 [6], 100 nM	–	–	99.2	–	–
Caco-2 [6], 1000 nM	–	–	102	–	–
Caco-2 [6], 10000 nM	–	–	48.5	–	–
Calu-3 [5], 1 nM	–	–	98.4	–	–
Calu-3 [5], 10 nM	–	–	101	–	–
Calu-3 [5], 100 nM	–	–	98.2	–	–
Calu-3 [5], 1000 nM	–	–	104	–	–
Calu-3 [5], 10000 nM	–	–	73.2	–	–
HepG2 [4], 1 nM	–	–	101	–	–
HepG2 [4], 10 nM	–	–	107	–	–
HepG2 [4], 100 nM	–	–	103	–	–
HepG2 [4], 1000 nM	–	–	99	–	–
HepG2 [4], 10000 nM	–	–	64.3	–	–
U2OS [3], 1 nM	–	–	98.9	–	–
U2OS [3], 10 nM	–	–	97.6	–	–
U2OS [3], 100 nM	–	–	97.1	–	–
U2OS [3], 1000 nM	–	–	97.2	–	–
U2OS [3], 10000 nM	–	–	93.2	–	–
Vero E6 [7], 1 nM	–	–	106	–	–
Vero E6 [7], 10 nM	–	–	104	–	–
Vero E6 [7], 100 nM	–	–	102	–	–
Vero E6 [7], 1000 nM	–	–	101	–	–
Vero E6 [7], 10000 nM	–	–	71.6	–	–
[13], 0.1 µM	106	–	–	–	–
[13], 0.3 µM	90	–	–	–	–
[13], 1 µM	88	–	–	–	–
[13], 3 µM	47	–	–	–	–
[16], 0.1 µM	–	101	–	–	–
[16], 0.3 µM	–	104	–	–	–
[16], 1 µM	–	108	–	–	–
[16], 3 µM	–	94	–	–	–
[17], 0.1 µM	–	–	–	0.14	–
[17], 0.3 µM	–	–	–	0.39	–
[17], 1 µM	–	–	–	0.32	–
[17], 3 µM	–	–	–	0.72	–

Settings	drug sensitivity score	relative viability EC50 [µM]
Caco-2 [11]	2.6	–
Caco-2 [15]	–	3.35
Calu-3 [10]	0.8	–
HepG2 [9]	1.8	–
U2OS [8]	0	–
U2OS [14]	–	> 10
Vero E6 [12]	1.1	–

CN1Cc2ccccc2[C@@H]2c3cccc4[nH]cc(c34)C[C@H]21 [CY208-243]
drug-induced phospholipidosis [%], A549-ACE2 [1]
Settings	0.3 µM	0.833333 µM	3.33333 µM	6.66667 µM	10 µM	30 µM
24 h	2.51	3.29	14.1	30.7	58.4	88.2
48 h	1.19	3.01	17.4	28.4	77.3	–
72 h	4.71	3.9	–	–	–	–

Settings	SARS-CoV-2 infection rate [%]	cell count [%]	cell viability [%]	morphology score	phospholipidosis EC50 [µM]
A549-ACE2 [2], 24 h	–	–	–	–	8.69
A549-ACE2 [2], 48 h	–	–	–	–	27.8
Caco-2 [6], 1 nM	–	–	99.1	–	–
Caco-2 [6], 10 nM	–	–	100	–	–
Caco-2 [6], 100 nM	–	–	94.8	–	–
Caco-2 [6], 1000 nM	–	–	110	–	–
Caco-2 [6], 10000 nM	–	–	82.8	–	–
Calu-3 [5], 1 nM	–	–	92.8	–	–
Calu-3 [5], 10 nM	–	–	99.8	–	–
Calu-3 [5], 100 nM	–	–	93.8	–	–
Calu-3 [5], 1000 nM	–	–	96.5	–	–
Calu-3 [5], 10000 nM	–	–	90.4	–	–
HepG2 [4], 1 nM	–	–	102	–	–
HepG2 [4], 10 nM	–	–	96.9	–	–
HepG2 [4], 100 nM	–	–	92.1	–	–
HepG2 [4], 1000 nM	–	–	99.5	–	–
HepG2 [4], 10000 nM	–	–	59.7	–	–
U2OS [3], 1 nM	–	–	95.7	–	–
U2OS [3], 10 nM	–	–	99.4	–	–
U2OS [3], 100 nM	–	–	97.3	–	–
U2OS [3], 1000 nM	–	–	100	–	–
U2OS [3], 10000 nM	–	–	83.3	–	–
Vero E6 [7], 1 nM	–	–	99	–	–
Vero E6 [7], 10 nM	–	–	92.7	–	–
Vero E6 [7], 100 nM	–	–	97	–	–
Vero E6 [7], 1000 nM	–	–	99.2	–	–
Vero E6 [7], 10000 nM	–	–	83.8	–	–
[13], 0.3 µM	100	–	–	–	–
[13], 3 µM	99	–	–	–	–
[13], 10 µM	87	–	–	–	–
[13], 30 µM	52	–	–	–	–
[16], 0.3 µM	–	97	–	–	–
[16], 3 µM	–	77	–	–	–
[16], 10 µM	–	82	–	–	–
[16], 30 µM	–	80	–	–	–
[17], 0.3 µM	–	–	–	-0.03	–
[17], 3 µM	–	–	–	0.26	–
[17], 10 µM	–	–	–	0.44	–
[17], 30 µM	–	–	–	0.69	–

Settings	drug sensitivity score	relative viability EC50 [µM]
Caco-2 [11]	0.2	–
Caco-2 [15]	–	> 10
Calu-3 [10]	0	–
Calu-3 [18]	–	> 10
HepG2 [9]	2.1	–
U2OS [8]	0.3	–
U2OS [14]	–	> 10
Vero E6 [12]	0.4	–
Vero E6 [19]	–	> 10
